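These data come from cells grown in 96-well plates and exposed to compound for 48 hours at five concentrations. GI50 is the concentration that inhibits growth by half. Definition used: TGI = concentration required for complete inhibition of growth.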
Assays:
Test in all cases: inhibition of tumour cell growth, NCI panel, 48 h
[1] = tested on: BT-549 breast
[2] = tested on: SK-MEL-5 melanoma
[3] = tested on: HCT-116 colon
[4] = tested on: SF-295 CNS
[5] = tested on: NCI-H23 lung
[6] = tested on: 786-0 renal
[7] = tested on: MCF7 breast
[8] = tested on: HS 578T breast
[9] = tested on: NCI/ADR-RES ovarian
[10] = tested on: SN12C renal
[11] = tested on: LOX IMVI melanoma
[12] = tested on: HOP-62 NSCLC
[13] = tested on: PC-3 prostate
[14] = tested on: IGROV1 ovarian
[15] = tested on: COLO 205 colon
[16] = tested on: HT29 colon
[17] = tested on: CAKI-1 renal
[18] = tested on: EKVX NSCLC
[19] = tested on: U251 CNS
[20] = tested on: HOP-92 NSCLC
[21] = tested on: OVCAR-5 ovarian
[22] = tested on: UO-31 renal
[23] = tested on: MDA-MB-435
[24] = tested on: SK-OV-3 ovarian
[25] = tested on: NCI-H522 lung
[26] = tested on: OVCAR-4 ovarian
[27] = tested on: MALME-3M melanoma
[28] = tested on: SNB-19 CNS
[29] = tested on: OVCAR-3 ovarian
[30] = tested on: OVCAR-8 ovarian
[31] = tested on: HL-60(TB) leukemia
[32] = tested on: HCC-2998 colon
[33] = tested on: KM12 colon
[34] = tested on: DU-145 prostate
[35] = tested on: SW-620 colon
[36] = tested on: SK-MEL-28 melanoma
[37] = tested on: M14 melanoma
[38] = tested on: MDA-MB-231 breast
[39] = tested on: ACHN renal
[40] = tested on: UACC-257 melanoma
[41] = tested on: SF-268 CNS
[42] = tested on: SF-539 CNS
[43] = tested on: NCI-H460 lung
[44] = tested on: SNB-75 CNS
[45] = tested on: SK-MEL-2 melanoma
[46] = tested on: HCT-15 colon
[47] = tested on: TK-10 renal
[48] = tested on: CCRF-CEM leukemia
[49] = tested on: A498 renal
[50] = tested on: RPMI-8226 leukemia
[51] = tested on: T-47D breast
[52] = tested on: K-562 leukemia
[53] = tested on: A549 NSCLC
[54] = tested on: SR leukemia
[55] = tested on: UACC-62 melanoma
[56] = tested on: MOLT-4 leukemia
[57] = tested on: RXF 393 renal

CCCCCCNC(=O)c1cc(NCc2cc(O)ccc2O)ccc1O
GI50 [1]: 1.14 µM
TGI [1]: 4.27 µM
GI50 [2]: 11.8 µM
TGI [2]: 25.4 µM
GI50 [3]: 4.75 µM
TGI [3]: 24.9 µM
GI50 [4]: 19.4 µM
TGI [4]: 49.2 µM
GI50 [5]: 13.1 µM
TGI [5]: 33.1 µM
GI50 [6]: 5.22 µM
TGI [6]: 20.7 µM
GI50 [7]: 5.01 µM
TGI [7]: 27.7 µM
GI50 [8]: 15.1 µM
TGI [8]: > 100 µM
GI50 [9]: 5.44 µM
TGI [9]: 78.1 µM
GI50 [10]: 4.75 µM
TGI [10]: 17.4 µM
GI50 [11]: 6.84 µM
TGI [11]: 22.4 µM
GI50 [12]: 30 µM
TGI [12]: 91.5 µM
GI50 [13]: 2.47 µM
TGI [13]: 12 µM
GI50 [14]: 12.7 µM
TGI [14]: 38.7 µM
GI50 [15]: 10.8 µM
TGI [15]: 28.6 µM
GI50 [16]: 21.6 µM
TGI [16]: 44.3 µM
GI50 [17]: 4.35 µM
TGI [17]: 18.5 µM
GI50 [18]: 7.69 µM
TGI [18]: 25.2 µM
GI50 [19]: 12.1 µM
TGI [19]: 28.5 µM
GI50 [20]: 1.66 µM
TGI [20]: 5.03 µM
GI50 [21]: 6.63 µM
TGI [21]: 20.8 µM
GI50 [22]: 1.22 µM
TGI [22]: 2.76 µM
GI50 [23]: 9.48 µM
TGI [23]: 22.1 µM
GI50 [24]: 25.8 µM
TGI [24]: > 100 µM
GI50 [25]: 0.265 µM
TGI [25]: 0.752 µM
GI50 [26]: 5.62 µM
TGI [26]: 19.3 µM
GI50 [27]: 2.74 µM
TGI [27]: 8.29 µM
GI50 [28]: 14.9 µM
TGI [28]: 28.6 µM
GI50 [29]: 2.76 µM
TGI [29]: 13 µM
GI50 [30]: 4.83 µM
TGI [30]: 36.2 µM
GI50 [31]: 0.578 µM
TGI [31]: 3.41 µM
GI50 [32]: 16.1 µM
TGI [32]: 31 µM
GI50 [33]: 11.5 µM
TGI [33]: 29 µM
GI50 [34]: 15.2 µM
TGI [34]: 28.8 µM
GI50 [35]: 8.75 µM
TGI [35]: 33.1 µM
GI50 [36]: 12.3 µM
TGI [36]: 25.4 µM
GI50 [37]: 11.1 µM
TGI [37]: 25.2 µM
GI50 [38]: 2.78 µM
TGI [38]: 10.4 µM
GI50 [39]: 4.02 µM
TGI [39]: 15.7 µM
GI50 [40]: 14.1 µM
TGI [40]: 30.4 µM
GI50 [41]: 3.79 µM
TGI [41]: 18.1 µM
GI50 [42]: 1.91 µM
TGI [42]: 6.06 µM
GI50 [43]: 21.5 µM
TGI [43]: 82.3 µM
GI50 [44]: 4.63 µM
TGI [44]: 21.1 µM
GI50 [45]: 11.9 µM
TGI [45]: 34.5 µM
GI50 [46]: 2.16 µM
TGI [46]: 7.35 µM
GI50 [47]: 10.7 µM
TGI [47]: 23.1 µM
GI50 [48]: 0.409 µM
TGI [48]: 46.5 µM
GI50 [49]: 16.1 µM
TGI [49]: > 100 µM
GI50 [50]: 0.371 µM
TGI [50]: 6.47 µM
GI50 [51]: 1.92 µM
TGI [51]: 5 µM
GI50 [52]: 2.71 µM
TGI [52]: 12.8 µM
GI50 [53]: 23.5 µM
TGI [53]: 71.5 µM
GI50 [54]: 2.88 µM
TGI [54]: > 100 µM
GI50 [55]: 3.78 µM
TGI [55]: 14.7 µM
GI50 [56]: 1.2 µM
TGI [56]: 13.4 µM
GI50 [57]: 2.42 µM
TGI [57]: 8.03 µM
